Patent US12528790B2, “Amide derivative having antiviral activity” (Shionogi & Co., Ltd., priority 2020, dated 2026)
Where two headings read alike, the source gives them in different places.

Assays:
RSV A2 strain = assay: In vitro CPE (CytoPathic Effect) inhibition effect evaluation test, RSV type A; format: cell-based
Outline: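 EC50 is the concentration giving 50% inhibition of virus-induced cytopathic effect, fitted by nonlinear regression from CellTiter-Glo 2.0 viability. Compounds in 3-fold series were co-incubated at 37 °C with HEp-2 cells and RSV: A2 strain for 4 days, B (Wash/18537) for 5 days; uninfected wells served as control.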

[1] = system: RSV B (Wash/18537 strain); assay: In vitro CPE (CytoPathic Effect) inhibition effect evaluation test, RSV type B; format: cell-based
Method: The test sample is diluted in advance to an appropriate concentration with DMSO, and 3-fold series of serial dilutions were prepared on a 384-well plate (0.32 μL/well). HEp-2 cells (CCL-23; ATCC) adjusted at appropriate number (2.4×10^5 cells/mL) in 2% FBS E-MEM (prepared by adding kanamycin and FBS to Eagle's Minimum Essential Medium; Invitrogen) were added at 12.5 μL/well to the 384-well plate previously aliquoted with the test samples. The RSV A2 strain was diluted to an appropriate concentration in a culture medium and added to the 384-well plate containing the test sample at 12.5 μL/well. The culture medium was added additionally to the 384-well plate, and the test was started with 50 μL/well. Control wells were prepared with only virus-free culture medium. The plate was incubated in a 5% CO2 incubator at 37° C. for 4 days, and the plate was then placed at room temperature for 30 minutes. CellTiter-Glo (registered trademark) 2.0 assay (Promega) was added at 15 μL/well, mixed for 30 seconds, and the plate was placed for approximately 1 hour. The luminescent signal was then measured by EnVision (PerkinElmer). The inhibitory effect of the test agents on RSV-induced CPE was calculated as 0% and 100% inhibition rate for each sample concentration based on the level of remaining viable cells by CellTiter-Glo (registered trademark) 2.0, with the EC50 value for each compound calculated by nonlinear regression as the concentration that inhibits RSV-induced CPE by 50%. In the case of evaluation against RSV type B, RSV B (Wash/18537 strain) was infected in the same manner as the type A, cultured for 5 days, and quantitated in the same manner as for the A2 strain.

[2] = inhibitory effect against RSV type A (RSV A2 strain), HEp-2 cells, CPE inhibition, read-out: EC50
[3] = inhibitory effect against RSV type B, CPE inhibition, read-out: EC50
[4] = human respiratory syncytial virus, inhibitory effect against RSV type A (RSV A2 strain), HEp-2 cells, CPE inhibition, read-out: EC50
[5] = human respiratory syncytial virus, inhibitory effect against RSV type B, CPE inhibition, read-out: EC50
[6] = human respiratory syncytial virus, HEp-2, 96 h, read-out: EC50, inhibitory effect against RSV type A (CPE inhibition)
[7] = human respiratory syncytial virus, HEp-2, 120 h, HEp-2 cells, RSV B (Wash/18537 strain), 5 days, CellTiter-Glo, read-out: EC50, inhibitory effect against RSV type B (CPE inhibition)

Work on COc1ccc2c(n1)C1(CCOCC1)CN2c1ncc(C(=O)NC2(C(=O)O)C3CC4CC(C3)CC2C4)c(C(F)(F)F)n1 (centres unmarked) [Compound I-91] yielded an EC50 (RSV A2 strain; [2]) of less than 10 nM and an EC50 [1, 3] of 10 to 100 nM.
Work on O=C(NC1(C(=O)O)C2CC3CC(C2)CC1C3)c1cnc(N2CC3(CCOCC3)c3cc(OC4CCN(C5CC5)CC4)ccc32)nc1C(F)(F)F (centres unmarked) [Compound I-92] yielded an EC50 (RSV A2 strain; [2]) of less than 10 nM and an EC50 [1, 3] of less than 10 nM.
Molecule Cc1ccc2c(c1)C1(CCOCC1)CN2c1ncc(C(=O)NC2(C(=O)O)C3CC4CC(C3)CC2C4)c(C(F)(F)F)n1 (centres unmarked) [Compound I-109] has an EC50 (RSV A2 strain; [2]) of less than 10 nM and an EC50 [1, 3] of 10 to 100 nM.
NC(=O)C1(NC(=O)c2cnc(N3CC4(CCOCC4)c4cc(OC5CCN(c6ncccn6)CC5)ccc43)nc2C(F)(F)F)C2CC3CC(C2)CC1C3 (centres unmarked) [Compound I-135] showed an EC50 (RSV A2 strain; [4]) of less than 10 nM and an EC50 [1, 5] of 10 to 100 nM.
O=C(NC1(C(=O)O)C2CC3CC(C2)CC1C3)c1cnc(-c2cn(C3CCOCC3)c3cc(OC4CCN(c5ncccn5)CC4)ccc23)nc1C(F)(F)F (centres unmarked) [Compound I-146] gave an EC50 (RSV A2 strain; [4]) of less than 10 nM and an EC50 [1, 5] of less than 10 nM.
O=C(NC1(C(=O)O)C2CC3CC(C2)CC1C3)c1ccc(-c2cn(C3CCOCC3)c3cc(OC4CCN(c5ncccn5)CC4)ccc23)nc1C(F)(F)F (centres unmarked) [Compound I-147] was tested, and the EC50 (RSV A2 strain; [4]) was less than 10 nM and the EC50 [1, 5] was less than 10 nM.
For O=C(NC1(C(=O)O)C2CC3CC(C2)CC1C3)c1ccc(-c2cn(-c3ccccc3)c3cc(OC4CCN(c5ncccn5)CC4)ccc23)nc1C(F)(F)F (centres unmarked) [Compound I-148], the EC50 (RSV A2 strain; [6]) was 1.5 nM and the EC50 [1, 7] was 2.8 nM.
Molecule O=C(NC1(C(=O)O)C2CC3CC(C2)CC1C3)c1ccc(-c2cn(C3COC3)c3cc(OC4CCN(c5ncccn5)CC4)ccc23)nc1C(F)(F)F (centres unmarked) [Compound I-151] has an EC50 (RSV A2 strain; [4]) of less than 10 nM and an EC50 [1, 5] of less than 10 nM.
Molecule O=C(NC1(C(=O)O)C2CC3CC(C2)CC1C3)c1ccc(-c2cn(C(=O)OC3CCOCC3)c3cc(OC4CCN(c5ncccn5)CC4)ccc23)nc1C(F)(F)F (centres unmarked) [Compound I-152] has an EC50 (RSV A2 strain; [4]) of less than 10 nM and an EC50 [1, 5] of less than 10 nM.
Work on O=C(N[C@@]1(C(=O)O)C2CC3C[C@@H]1C[C@](F)(C3)C2)c1cnc(N2CCc3cc(OCCC4CCOCC4)ccc32)nc1C(F)(F)F [Compound I-155] yielded an EC50 (RSV A2 strain; [4]) of less than 10 nM and an EC50 [1, 5] of 10 to 100 nM.
In the case of O=C(NC1(C(=O)O)C2CC3CC(C2)CC1C3)c1ccc(-c2nn(C3CCOCC3)c3cc(OC4CCN(c5ncccn5)CC4)ccc23)nc1C(F)(F)F (centres unmarked) [Compound I-158], the EC50 (RSV A2 strain; [4]) is reported as less than 10 nM and the EC50 [1, 5] is reported as less than 10 nM.
O=C(NC1(C(=O)O)C2CC3CC(C2)CC1C3)c1cnc(-c2nn(C3CCOCC3)c3cc(OC4CCN(c5ncccn5)CC4)ccc23)nc1C(F)(F)F (centres unmarked) [Compound I-159] was tested, and the EC50 (RSV A2 strain; [6]) was 0.88 nM and the EC50 [1, 7] was 3 nM.
CN(C)CCCc1nc(N2CCc3cc(OCCC4CCOCC4)ccc32)nc(C(F)(F)F)c1C(=O)NC1(C(=O)O)C2CC3CC(C2)CC1C3 (centres unmarked) [Compound I-160] gave an EC50 (RSV A2 strain; [4]) of 10 to 100 nM and an EC50 [1, 5] of 100 to 5000 nM.
Molecule O=C(NC1(C(=O)O)C2CC3CC(C2)CC1C3)c1ccc(-c2cn(C3CCC(F)(F)CC3)c3cc(OC4CCN(c5ncccn5)CC4)ccc23)nc1C(F)(F)F (centres unmarked) [Compound I-162] has an EC50 (RSV A2 strain; [6]) of 0.88 nM and an EC50 [1, 7] of 3.3 nM.
Molecule O=C(N[C@]1(C(=O)O)[C@@H]2CC3C[C@H]1C[C@@](F)(C3)C2)c1cnc(N2CC3(CCOCC3)c3cc(OC4CCN(c5ncccn5)CC4)ccc32)nc1C(F)(F)F [Compound I-165] has an EC50 (RSV A2 strain; [6]) of 0.37 nM and an EC50 [1, 7] of 0.62 nM.
Molecule O=C(NC1(C(=O)O)C2CC3CC(C2)CC1C3)c1ccc(-c2cn(-c3ccccn3)c3cc(OC4CCN(c5ncccn5)CC4)ccc23)nc1C(F)(F)F (centres unmarked) [Compound I-175] has an EC50 (RSV A2 strain; [4]) of less than 10 nM and an EC50 [1, 5] of less than 10 nM.
Molecule O=C(NC1(C(=O)O)C2CC3CC(C2)CC1C3)c1ccc(-c2cn(-c3ccncc3)c3cc(OC4CCN(c5ncccn5)CC4)ccc23)nc1C(F)(F)F (centres unmarked) [Compound I-176] has an EC50 (RSV A2 strain; [4]) of less than 10 nM and an EC50 [1, 5] of less than 10 nM.
O=C(NC1(C(=O)O)C2CC3CC(C2)CC1C3)c1ccc(-c2cn(-c3cccnc3)c3cc(OC4CCN(c5ncccn5)CC4)ccc23)nc1C(F)(F)F (centres unmarked) [Compound I-177] was tested, and the EC50 (RSV A2 strain; [4]) was less than 10 nM and the EC50 [1, 5] was less than 10 nM.
Molecule O=C(NC1(C(=O)O)C2CC3CC(C2)CC1C3)c1cnc(-c2c3ccc(OC4CCN(c5ncccn5)CC4)cc3nn2C2CCOCC2)nc1C(F)(F)F (centres unmarked) [Compound I-182] has an EC50 (RSV A2 strain; [6]) of 0.39 nM and an EC50 [1, 7] of 2.1 nM.
